Key:
human EAAT3 = biological target: T1, human EAAT3 (Homo sapiens, UniProt P43005); experiment: FLIPR Membrane Potential (FMP) assay, antagonist potency at human EAAT3; format: cell-based; conditions: HEK-293 cells stably expressing human EAAT3; L-glutamate as agonist at EC80; antagonist applied 15 min before; Kb by Cheng-Prusoff from IC50
T1 construct: expressed in transfected cells
T1 sequence (P43005 1-524): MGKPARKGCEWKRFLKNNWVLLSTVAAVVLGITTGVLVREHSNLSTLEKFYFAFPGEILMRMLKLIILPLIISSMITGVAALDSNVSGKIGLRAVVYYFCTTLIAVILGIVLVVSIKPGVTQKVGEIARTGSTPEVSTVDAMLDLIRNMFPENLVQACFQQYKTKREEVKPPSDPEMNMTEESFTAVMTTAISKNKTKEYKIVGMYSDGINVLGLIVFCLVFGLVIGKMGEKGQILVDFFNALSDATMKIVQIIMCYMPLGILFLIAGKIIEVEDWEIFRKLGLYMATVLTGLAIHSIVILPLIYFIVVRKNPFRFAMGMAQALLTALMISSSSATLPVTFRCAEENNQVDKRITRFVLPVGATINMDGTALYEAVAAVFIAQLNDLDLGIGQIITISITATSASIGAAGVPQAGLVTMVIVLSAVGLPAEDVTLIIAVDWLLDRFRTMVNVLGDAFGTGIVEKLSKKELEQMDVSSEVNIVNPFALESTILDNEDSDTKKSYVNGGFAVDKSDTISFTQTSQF
Method: The FLIPR Membrane Potential (FMP) Assay
HEK-293 cells stably expressing human EAAT3 were seeded at 55 000 cells/well in growth medium (DMEM glutamate free (Invitrogen 11960-044), 1% Pen Strep (10 ml/l GIBCO BRL No 15140-023), 10% FCS non dialysed heat inactivated, 5 mg/l puromycin) in poly-D-lysine treated 96-well black microtiter plates with clear-bottom. After 24 h, the growth medium was removed and 100 μl/well of Krebs buffer (140 mM NaCl, 4.7 mM KCl, 2.5 mM CaCl2, 1.2 mM MgCl2, 11 mM HEPES, 10 mM D-glucose, pH=7.4) added. The cells were then loaded by adding 100 μl/well FMP assay dye (FLIPR Membrane Potential assay reagent, Molecular Devices). The 96-well plates were then incubated at 37° C. for 1 h. The depolarization of the cells will cause more dye to enter in the cells, where it will bind to intracellular proteins and lipids and cause an increase in the fluorescence signal. Antagonist potency at human EAAT3 was determined by using L-glutamate as agonist at a concentration which gives 80% of the maximum response. The antagonists were applied 15 min before the application of the agonist L-glutamate. The assays were performed at room temperature and measurements done by using a Fluorometric Imaging Plate Reader (FLIPR, Molecular Devices) and filter #2. Responses were measured as peak increase in fluorescence minus basal (i.e. fluorescence without addition of L-glutamate). Kb was determined using the Cheng-Prusoff equation Kb=IC50/[1+(A/EC50)], where IC50 is the concentration of the antagonist producing 50% inhibition, A is the concentration of the agonist against which the IC50 is being determined (at EC80) and EC50 is the concentration of the agonist producing 50% […].

Row | Kb (human EAAT3) [nM] | melting point [°C] | SMILES
1 | 110 | 199 | CC(C)c1nccn1-c1cc(C(=O)NC(C)(C)C)cc(-c2ccc(F)cc2)n1 [Example 2, N-tert-Butyl-2-(4-fluorophenyl)-6-(2-propan-2-yl-imidazol-1-yl)-pyridine-4-carboxamide]
2 | 100 |  | CC(C)(C)NC(=O)c1cc(-c2ccc(F)cc2)nc(-n2ccnc2C(C)(C)O)c1 [Example 18, N-tert-Butyl-2-(4-fluorophenyl)-6-[2-(2-hydroxypropan-2-yl)-imidazol-1-yl]-pyridine-4-carboxamide]
3 | 180 |  | CC(C)(C)NC(=O)c1cc(-c2ccc(C(F)(F)F)cc2)nc(-n2ccnc2C(C)(C)C)c1 [Example 19, N-tert-Butyl-2-(2-tert-butylimidazol-1-yl)-6-[4-(trifluoromethyl)-phenyl]-pyridine-4-carboxamide]
4 | 260 | 225 | CC(C)(C)c1nccn1-c1cc(C(=O)NC(C)(C)C(F)(F)F)cc(-c2ccc(Cl)cc2)n1 [Example 25, 2-(2-tert-Butylimidazol-1-yl)-6-(4-chlorophenyl)-N-(1,1,1-trifluoro-2-methylpropan-2-yl)-pyridine-4-carboxamide]
5 | 370 | 244 | CC(C)(C)NC(=O)c1cc(-c2ccc(F)c(F)c2)nc(-n2ccnc2C(C)(C)C)c1 [Example 26, N-tert-Butyl-2-(2-tert-butyl-imidazol-1-yl)-6-(3,4-difluorophenyl)-pyridine-4-carboxamide]
6 | 110 | 232 | Cc1ccc(-c2cc(C(=O)NC(C)(C)C)cc(-n3ccnc3C(C)(C)C)n2)cc1 [Example 27, N-tert-Butyl-2-(2-tert-butyl-imidazol-1-yl)-6-(4-methylphenyl)-pyridine-4-carboxamide]
7 | 670 | 226 | CC(C)(C)NC(=O)c1cc(-c2ccc(C3CC3)cc2)nc(-n2ccnc2C(C)(C)C)c1 [Example 28, N-tert-Butyl-2-(2-tert-butyl-imidazol-1-yl)-6-(4-cyclopropyl-phenyl)-pyridine-4-carboxamide]
8 | 150 |  | Cc1cc(-c2cc(C(=O)NC(C)(C)C)cc(-n3ccnc3C(C)(C)C)n2)ccc1F [Example 29, N-tert-Butyl-2-(2-tert-butyl-imidazol-1-yl)-6-(4-fluoro-3-methyl-phenyl)-pyridine-4-carboxamide]
9 | 240 | 235 | COc1ccc(-c2cc(C(=O)NC(C)(C)C)cc(-n3ccnc3C(C)(C)C)n2)cc1 [Example 31, N-tert-Butyl-2-(2-tert-butyl-imidazol-1-yl)-6-(4-methoxy-phenyl)-pyridine-4-carboxamide]
10 | 290 | 245 | CC(C)(C)NC(=O)c1cc(-c2ccc(C#N)cc2)nc(-n2ccnc2C(C)(C)C)c1 [Example 32, N-tert-Butyl-2-(2-tert-butyl-imidazol-1-yl)-6-(4-cyano-phenyl)-pyridine-4-carboxamide]
11 | 170 |  | CC(C)(C)NC(=O)c1cc(-c2ccc(Cl)cc2)nc(-n2ccnc2C(C)(C)O)c1 [Example 33, N-tert-Butyl-2-(4-chlorophenyl)-6-[2-(2-hydroxypropan-2-yl)-imidazol-1-yl]-pyridine-4-carboxamide]
12 | 240 |  | CC(C)(C)NC(=O)c1cc(-c2ccc(C(F)(F)F)cc2)nc(-n2ccnc2C(C)(C)O)c1 [Example 34, N-tert-Butyl-2-[2-(2-hydroxypropan-2-yl)-imidazol-1-yl]-6-[4-(trifluoromethyl)-phenyl]-pyridine-4-carboxamide]
13 | 96 |  | CC(C)(C#N)NC(=O)c1cc(-c2ccc(Cl)cc2)nc(-n2ccnc2C(C)(C)C)c1 [Example 37, 2-(2-tert-Butylimidazol-1-yl)-6-(4-chlorophenyl)-N-(2-cyanopropan-2-yl)-pyridine-4-carboxamide]

The next lines start with the compound.

Row | SMILES | Kb (human EAAT3) [nM] | melting point [°C]
14 | CC(C)(C)NC(=O)c1cc(-c2ccc(F)cc2)nc(-n2ccnc2CO)c1 [Example 14, N-tert-Butyl-2-(4-fluorophenyl)-6-[2-(hydroxymethyl)-imidazol-1-yl]-pyridine-4-carboxamide] | 370 | 212
15 | CC(C)(C)NC(=O)c1cc(-c2ccc(C(F)(F)F)cc2)nc(-n2ccnc2C2CC2)c1 [Example 20, N-tert-Butyl-2-(2-cyclopropyl-imidazol-1-yl)-6-[4-(trifluoromethyl)-phenyl]-pyridine-4-carboxamide] | 290 | 
16 | Cc1nccn1-c1cc(C(=O)NC(C)(C)C)cc(-c2ccc(C(F)(F)F)cc2)n1 [Example 21, N-tert-Butyl-2-(2-methyl-imidazol-1-yl)-6-[4-(trifluoromethyl)-phenyl]-pyridine-4-carboxamide] | 650 | 
17 | CC(C)(C)NC(=O)c1cc(-c2ccc(Cl)cc2)nc(-n2ccnc2CO)c1 [Example 22, N-tert-Butyl-2-(4-chlorophenyl)-6-[2-(hydroxymethyl)-imidazol-1-yl]-pyridine-4-carboxamide] | 500 | 
18 | CC(C)c1nccn1-c1cc(C(=O)NC(C)(C)C(F)(F)F)cc(-c2ccc(Cl)cc2)n1 [Example 23, 2-(4-Chlorophenyl)-6-(2-propan-2-yl-imidazol-1-yl)-N-(1,1,1-trifluoro-2-methylpropan-2-yl)-pyridine-4-carboxamide] | 320 | 
19 | CC(C)(NC(=O)c1cc(-c2ccc(Cl)cc2)nc(-n2ccnc2C2CC2)c1)C(F)(F)F [Example 24, 2-(4-Chlorophenyl)-6-(2-cyclopropyl-imidazol-1-yl)-N-(1,1,1-trifluoro-2-methylpropan-2-yl)-pyridine-4-carboxamide] | 510 | 
20 | CC(C)c1nccn1-c1cc(C(=O)NC(C)(C)CO)cc(-c2ccc(Cl)cc2)n1 [Example 30, 2-(4-Chlorophenyl)-N-(1-hydroxy-2-methylpropan-2-yl)-6-(2-propan-2-yl-imidazol-1-yl)-pyridine-4-carboxamide] | 190 | 
21 | CC(C)(O)c1nccn1-c1cc(C(=O)NC(C)(C)C2CC2)cc(-c2ccc(Cl)cc2)n1 [Example 35, 2-(4-Chlorophenyl)-N-(2-cyclopropylpropan-2-yl)-6-[2-(2-hydroxypropan-2-yl)-imidazol-1-yl]-pyridine-4-carboxamide] | 150 | 
22 | CC(C)(O)c1nccn1-c1cc(C(=O)NC(C)(C)C(F)(F)F)cc(-c2ccc(Cl)cc2)n1 [Example 36, 2-(4-Chlorophenyl)-6-[2-(2-hydroxypropan-2-yl)-imidazol-1-yl]-N-(1,1,1-trifluoro-2-methylpropan-2-yl)-pyridine-4-carboxamide] | 78 | 
23 | CCC(C)(C)NC(=O)c1cc(-c2ccc(F)cc2)nc(-n2ccnc2C(C)C)c1 [Example 39, 2-(4-Fluorophenyl)-N-(2-methylbutan-2-yl)-6-(2-propan-2-ylimidazol-1-yl)-pyridine-4-carboxamide] | 69 | 
24 | CC(C)c1nccn1-c1cc(C(=O)NC(C)(C)C#N)cc(-c2ccc(Cl)cc2)n1 [Example 40, 2-(4-Chlorophenyl)-N-(2-cyanopropan-2-yl)-6-(2-propan-2-yl-imidazol-1-yl)-pyridine-4-carboxamide] | 360 | 

From patent US10092546B2, “Imidazole derivatives” (Hoffman-La Roche Inc., priority 2015, dated 2018)
